# Data reported in patent US20150273055A1, “METHODS AND COMPOSITIONS FOR EXPANDING HEMATOPOIETIC STEM AND PROGENITOR CELLS” (UNIVERSITY OF ROCHESTER, priority 2012, published 2015).
# How the values were obtained:
# [1] = system: LSKs; assay: Growth and survival of LSKs cultured in cytokine-supplemented media; format: cell-based, mice; conditions: increasing concentrations of αVEGF
# [2] = system: hematopoietic stem and progenitor cells (HSPCs); assay: Flow cytometric analysis of bone marrow HSPCs from treated mice; format: in vivo, C57B1/6 mice; conditions: for PTH-induced expansion of phenotypic and functional BM HSPCs: αVEGF in combination with PTH
# Method: All drugs were administered by intraperitoneal injection. Following 10 days of treatment, mice were sacrificed (on the morning of the eleventh day) and samples were harvested. Hindlimb bone marrow samples were used to generate the data for FIG. 8A as well as for the competitive transplantation of whole bone marrow. Hindlimb bone marrow was harvested by crushing the right hindlimb of each mouse individually using a sterile mortar and pestle in 2.5 mL phosphate buffered saline, filtered through a 40 um cell strainer and placed on ice. For flow cytometric analysis, fresh, filtered bone marrow cells were subjected to a red blood cell lysis procedure using ammonium chloride and then prepared for flow cytometry by staining with a panel of fluorescently-conjugated antibodies recognizing markers of hematopoietic stem and progenitor cells. Samples were then run on an LSR-II 12 color flow cytometer and data was analyzed using TreeStar's FlowJo software. Statistics between treatment groups were analyzed by student's T test. […]
# [3] = system: CD105+ mesenchymal cells; assay: Flow cytometry of CD105+/Endoglin+ CD45− bone marrow mesenchymal cells; format: in vivo, C57B1/6 mice; conditions: bevacizumab with PTH(1-34) or vehicle, 10 days
# Method: When administered to a live animal, pimonidazole-HCl precipitates in cells containing<14 μM oxygen or pO2<10 mm Hg and can be detected immunohistochemically. […] FIG. 7A is a schematic of VEGF-blocking experiment. […] FIG. 7B is a graph showing frequency of CD31+ Sca1+ bone marrow endothelial cells isolated from C57B1/6 mice treated as indicated. FIG. 7C is a graph showing frequency of
# CD105+/Endoglin+ CD45− non-hematopoietic bone marrow mesenchymal cells isolated from C57B1/6 mice treated as indicated. *P<0.05, **P<0.01
# [4] = system: CD31+ Sca1+ BM endothelial cells; assay: Flow cytometry of CD31+ Sca1+ bone marrow endothelial cells; format: in vivo, mice; conditions: bevacizumab 0.7 mg/kg once per day with PTH thrice per day 10 days, vs PTH alone
# Method: All drugs were administered by intraperitoneal injection. Following 10 days of treatment, mice were sacrificed (on the morning of the eleventh day) and samples were harvested. Hindlimb bone marrow samples were used to generate the data for FIG. 8A as well as for the competitive transplantation of whole bone marrow. Hindlimb bone marrow was harvested by crushing the right hindlimb of each mouse individually using a sterile mortar and pestle in 2.5 mL phosphate buffered saline, filtered through a 40 um cell strainer and placed on ice. For flow cytometric analysis, fresh, filtered bone marrow cells were subjected to a red blood cell lysis procedure using ammonium chloride and then prepared for flow cytometry by staining with a panel of fluorescently-conjugated antibodies recognizing markers of hematopoietic stem and progenitor cells. Samples were then run on an LSR-II 12 color flow cytometer and data was analyzed using TreeStar's FlowJo software. Statistics between treatment groups were analyzed by student's T test.
# Methods of administration and analysis of the effects of PTH either alone or in combination are described above. To determine whether bone anabolic, HSPC-expanding regimens of PTH stimulation alter the vascular niche, mice were first treated intensively with PTH and the hindlimb BM vasculature was analyzed. PTH increased BM vascular structures per hindlimb section (femur and tibia) by histomorphometric analysis (FIG. 9A) as well as the area occupied by vasculature measured within the tibial metaphysis (FIG. 9B). To clarify whether intensive PTH treatment was vasodilatory to existing vessels or increasing de novo endothelial structures, BMCs of PTH-treated mice were analyzed phenotypically by flow cytometry (FIG. 9D). Intensive PTH treatment expanded populations of BM endothelial cells defined by this immunophenotyic signature (FIG. 9E). […] This expansion of small BM blood vessels was also observed in close association with both trabecular and cortical bone when CD31 immunostaining was examined in the BM (FIG. 9E). The PTH-induced increase in endothelial structures was accompanied by an increase in perivascular α smooth muscle actin (αSMA+) (FIG. 9F), indicating a concomitant increase in perivascular, HSPC supportive stromal cells.
# [5] = system: trabecular bone; assay: Micro-CT analysis of trabecular bone; format: in vivo, mice
# Method: The limbs were scanned on a Viva CT 40 (Scanco Medical, Bruttisellen, Switzerland) using a 55-kVp, 145-uA current and a 300-ms integration time with a resolution of 12.5 μm. Trabecular analysis was conducted on a 1.25-mm region 50 μm above the growth plate in the femur and a 625-μm 50 um below the growth plate in the tibia. Cortical analysis was conducted 4.375 mm above/below the growth plate of the femur/tibia for a distance of 375 μm.
# Due to the dramatic induction of osteoblastic VEGF-A observed in the setting of PTH stimulation, the functional relevance of this signal in multiple aspects of BM microenvironmental activation was analyzed.
# [6] = αVEGF during TID PTH, effect on the effects of PTH
# [7] = αVEGF, baseline or PTH-enhanced
substance,measurement,setting,value
bevacizumab: anti-VEGF-A monoclonal antibody bevacizumab (referred to as αVEGF); humanized monoclonal antibody,growth and survival of LSKs,[1],not significantly affected
same,"PTH-mediated expansion of HSCs (Flt3−, CD48−, CD150+ LSKs)",[2]; VEGF inhibition with PTH,did not diminish
same,HSPCs,[2]; anti-VEGF therapy with or without PTH,expands
same,PTH-induced expansion of multipotent progenitor/short term repopulating HSPCs (MPP/ST-HSPCs),[2]; bevacizumab and PTH vs PTH alone,augmented
same,PTH-induced expansion of phenotypic and functional BM HSPCs,[2],further increased
same,PTH-induced expansion of phenotypic and functional BM HSPCs,[2]; listed as anti-VEGF-A treatment,augments
same,"Flt3+, CD48−, CD150− LSKs",[2]; αVEGF in the setting of PTH,trend towards an increase
same,"hematopoietic lineage−, Sca1+, c-kit+ cells (LSKs)",[2]; αVEGF in the setting of PTH,trend towards an increase
same,"Flt3+, CD48−, CD150− LSKs",[2]; αVEGF treatment alone,expanded
same,"hematopoietic lineage−, Sca1+, c-kit+ cells (LSKs)",[2]; αVEGF treatment alone,expanded
same,CD105+ mesenchymal cells,[3],does not reduce
same,PTH-mediated expansion of BM endothelial cells,[4]; listed as Bevacizumab,blunted
same,PTH-mediated expansion of BM endothelial cells,[4]; listed as anti-VEGF therapy,blocks
same,PTH-mediated expansion of BM endothelial cells,[4]; listed as αVEGF,significantly decreased
same,connectivity density of the trabecular bone,[5]; [6],augment
same,number of bony trabeculae,[5]; [6],augment
same,bone anabolic action of PTH,[5]; αVEGF in combination with PTH,without blocking
same,trabecular bone volume,[5]; [7],did not significantly alter
same,trabecular spacing,[5]; [7],did not significantly alter
